Measurements as given in US10869940B2, “Targeted photoacoustic compounds, formulations, and uses thereof” (The Board of Trustees of the Leland Stanford Junior …, priority 2015, dated 2020).

Target: T1, PSMA expressing PC3 PiP cells (Homo sapiens, UniProt Q04609)
T1 construct: expressed in transfected cells; host or cells: PC3 PIP cells
Assay: Binding of the PSMA targeting photoacoustic compound to PSMA-expressing PC3 PIP cells

T1 sequence (Q04609 whole entry): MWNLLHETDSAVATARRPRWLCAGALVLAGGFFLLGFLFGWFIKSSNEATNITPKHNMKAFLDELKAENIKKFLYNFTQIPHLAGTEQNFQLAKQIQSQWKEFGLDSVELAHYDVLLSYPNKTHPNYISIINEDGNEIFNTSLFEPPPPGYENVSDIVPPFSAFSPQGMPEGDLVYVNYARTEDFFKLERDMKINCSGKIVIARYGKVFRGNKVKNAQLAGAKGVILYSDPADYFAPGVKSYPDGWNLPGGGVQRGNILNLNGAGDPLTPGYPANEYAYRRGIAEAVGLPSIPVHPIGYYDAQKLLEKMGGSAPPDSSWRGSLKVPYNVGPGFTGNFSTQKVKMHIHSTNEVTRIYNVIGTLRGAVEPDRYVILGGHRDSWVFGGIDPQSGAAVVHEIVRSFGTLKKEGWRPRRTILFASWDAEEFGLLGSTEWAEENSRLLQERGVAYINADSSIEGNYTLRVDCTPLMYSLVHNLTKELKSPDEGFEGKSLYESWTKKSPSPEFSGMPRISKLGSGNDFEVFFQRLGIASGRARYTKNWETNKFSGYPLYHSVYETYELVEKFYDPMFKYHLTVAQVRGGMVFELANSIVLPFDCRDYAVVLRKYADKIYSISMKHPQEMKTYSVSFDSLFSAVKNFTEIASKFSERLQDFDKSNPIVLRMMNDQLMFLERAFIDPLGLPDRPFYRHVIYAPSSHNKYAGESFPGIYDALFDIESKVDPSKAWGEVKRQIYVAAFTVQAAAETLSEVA

O=C(O)CCC(CP(=O)(O)O)C(=O)O (stereo not shown) [2-PMPA, 2-(phosphonomethyl)pentane-1,5 dioic acid]
blocking of binding to PC3 PIP cells by co-incubation with 2-PMPA: efficiently blocked
